Experimental data taken from ChEMBL document CHEMBL2046359, “Novel tricyclic indeno[2,1-d]pyrimidines with dual antiangiogenic and cytotoxic activities as potent antitumor agents” (Bioorg Med Chem, 2012).
Calls of active or inactive are those of the source. No cut-off for these calls is given here.

What was measured:
SF-268 = test: cells; conditions: Homo sapiens
KM12 = test: cells; conditions: Homo sapiens
[1] = target: T1, Dihydroorotate dehydrogenase (Plasmodium falciparum, UniProt Q54A96); test: Inhibition of Plasmodium falciparum DHODH
T1 sequence (Q54A96 whole entry): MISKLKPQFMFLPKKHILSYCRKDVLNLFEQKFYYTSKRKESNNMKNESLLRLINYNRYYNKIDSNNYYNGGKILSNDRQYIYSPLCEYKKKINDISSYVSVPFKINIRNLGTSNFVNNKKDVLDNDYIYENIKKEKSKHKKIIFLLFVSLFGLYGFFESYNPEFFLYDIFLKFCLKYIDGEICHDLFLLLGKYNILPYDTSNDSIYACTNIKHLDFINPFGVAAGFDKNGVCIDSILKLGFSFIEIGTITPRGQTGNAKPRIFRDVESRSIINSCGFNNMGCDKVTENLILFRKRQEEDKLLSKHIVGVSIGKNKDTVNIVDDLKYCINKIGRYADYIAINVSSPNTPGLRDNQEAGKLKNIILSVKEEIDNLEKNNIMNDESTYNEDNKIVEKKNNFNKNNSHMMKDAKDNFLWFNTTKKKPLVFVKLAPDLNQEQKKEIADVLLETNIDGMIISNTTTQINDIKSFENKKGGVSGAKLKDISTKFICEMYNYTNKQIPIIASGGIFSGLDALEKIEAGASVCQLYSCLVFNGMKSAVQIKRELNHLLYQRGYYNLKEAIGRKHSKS

CCRF-CEM = test: cells; conditions: Homo sapiens
DU-145 = test: cells; conditions: Homo sapiens
cells = conditions: Homo sapiens, Hs-578T
NCI-H23 = test: cells; conditions: Homo sapiens
786-0 = test: cells; conditions: Homo sapiens
OVCAR-3 = test: cells; conditions: Homo sapiens
CAKI-1 = test: cells; conditions: Homo sapiens
EKVX = test: cells; conditions: Homo sapiens
A-431 = test: Antiproliferative activity against human A431 cells after 48 hrs by CYQUANT assay; format: functional, cell-based; conditions: A-431, 48 h
B16-F10 [2] = test: Antitumor activity against mouse B16F10 cells allografted in NCr nu/nu mouse assessed as decrease in tumor metastasis at 35 mg/kg, ip administered three times weekly for 2 weeks
UACC-257 = test: cells; conditions: Homo sapiens
UACC-62 = test: cells; conditions: Homo sapiens
T47D = test: cells; conditions: Homo sapiens
OVCAR-4 = test: cells; conditions: Homo sapiens
B16-F10 [3] = test: Antitumor activity against mouse B16F10 cells allografted in NCr nu/nu mouse assessed as inhibition of tumor angiogenesis at 35 mg/kg, ip administered three times weekly for 2 weeks
[4] = target: T2, Bifunctional dihydrofolate reductase-thymidylate synthase (Toxoplasma gondii, UniProt Q07422); test: Inhibition of Toxoplasma gondii DHFR
T2 sequence (Q07422 whole entry): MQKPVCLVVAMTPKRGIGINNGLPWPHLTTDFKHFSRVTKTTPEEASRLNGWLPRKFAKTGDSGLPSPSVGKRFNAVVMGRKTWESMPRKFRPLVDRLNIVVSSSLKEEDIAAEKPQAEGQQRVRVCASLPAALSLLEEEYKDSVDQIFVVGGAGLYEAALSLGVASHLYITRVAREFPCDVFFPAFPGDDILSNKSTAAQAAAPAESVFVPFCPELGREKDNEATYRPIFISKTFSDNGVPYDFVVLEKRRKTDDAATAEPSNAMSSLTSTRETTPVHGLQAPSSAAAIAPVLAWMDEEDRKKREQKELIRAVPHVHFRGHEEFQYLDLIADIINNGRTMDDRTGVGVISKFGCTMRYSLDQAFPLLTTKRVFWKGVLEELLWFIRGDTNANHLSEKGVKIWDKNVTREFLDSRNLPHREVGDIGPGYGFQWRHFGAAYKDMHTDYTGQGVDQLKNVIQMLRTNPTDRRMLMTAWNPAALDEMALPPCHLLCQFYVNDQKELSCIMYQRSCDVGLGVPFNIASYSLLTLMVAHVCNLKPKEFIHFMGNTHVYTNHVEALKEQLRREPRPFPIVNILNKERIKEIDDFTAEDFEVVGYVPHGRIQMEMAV

SK-MEL-2 = test: cells; conditions: Homo sapiens
HCT-116 = test: cells; conditions: Homo sapiens
[5] = target: T2, Bifunctional dihydrofolate reductase-thymidylate synthase; test: Inhibition of Toxoplasma gondii thymidylate synthase
[6] = target: Vascular endothelial growth factor receptor 2 (Homo sapiens, UniProt P35968); format: cell-based, U-251
RXF 393 = test: cells; conditions: Homo sapiens
HL-60(TB) = test: cells; conditions: Homo sapiens
B16-F10 [7] = test: Antitumor activity against mouse B16F10 cells allografted in NCr nu/nu mouse assessed as tumor growth reduction at 35 mg/kg, ip administered three times weekly for 2 weeks
NCI-H322M = test: cells; conditions: Homo sapiens
HCT-15 = test: cells; conditions: Homo sapiens
BT-549 = test: cells; conditions: Homo sapiens
SR = test: cells; conditions: Homo sapiens
SF-295 = test: cells; conditions: Homo sapiens
[8] = Inhibition of Escherichia coli thymidylate synthase
MOLT-4 = test: cells; conditions: Homo sapiens
ACHN = test: cells; conditions: Homo sapiens
LOX IMVI = test: cells; conditions: Homo sapiens
K562 = test: cells; conditions: Homo sapiens
PC-3 = test: cells; conditions: Homo sapiens
SN12C = test: cells; conditions: Homo sapiens
NCI-H522 = test: cells; conditions: Homo sapiens
Mus musculus = test: Toxicity in NCr nu/nu mouse allografted with mouse B16F10 cells assessed as weight loss at 35 mg/kg, ip administered three times a week for 4 weeks; format: organism-based, B16-F10; set-up: dose 35 mg/kg, route intraperitoneal; conditions: in vivo, 672 h

Chain of Vascular endothelial growth factor receptor 2 (P35968 whole entry): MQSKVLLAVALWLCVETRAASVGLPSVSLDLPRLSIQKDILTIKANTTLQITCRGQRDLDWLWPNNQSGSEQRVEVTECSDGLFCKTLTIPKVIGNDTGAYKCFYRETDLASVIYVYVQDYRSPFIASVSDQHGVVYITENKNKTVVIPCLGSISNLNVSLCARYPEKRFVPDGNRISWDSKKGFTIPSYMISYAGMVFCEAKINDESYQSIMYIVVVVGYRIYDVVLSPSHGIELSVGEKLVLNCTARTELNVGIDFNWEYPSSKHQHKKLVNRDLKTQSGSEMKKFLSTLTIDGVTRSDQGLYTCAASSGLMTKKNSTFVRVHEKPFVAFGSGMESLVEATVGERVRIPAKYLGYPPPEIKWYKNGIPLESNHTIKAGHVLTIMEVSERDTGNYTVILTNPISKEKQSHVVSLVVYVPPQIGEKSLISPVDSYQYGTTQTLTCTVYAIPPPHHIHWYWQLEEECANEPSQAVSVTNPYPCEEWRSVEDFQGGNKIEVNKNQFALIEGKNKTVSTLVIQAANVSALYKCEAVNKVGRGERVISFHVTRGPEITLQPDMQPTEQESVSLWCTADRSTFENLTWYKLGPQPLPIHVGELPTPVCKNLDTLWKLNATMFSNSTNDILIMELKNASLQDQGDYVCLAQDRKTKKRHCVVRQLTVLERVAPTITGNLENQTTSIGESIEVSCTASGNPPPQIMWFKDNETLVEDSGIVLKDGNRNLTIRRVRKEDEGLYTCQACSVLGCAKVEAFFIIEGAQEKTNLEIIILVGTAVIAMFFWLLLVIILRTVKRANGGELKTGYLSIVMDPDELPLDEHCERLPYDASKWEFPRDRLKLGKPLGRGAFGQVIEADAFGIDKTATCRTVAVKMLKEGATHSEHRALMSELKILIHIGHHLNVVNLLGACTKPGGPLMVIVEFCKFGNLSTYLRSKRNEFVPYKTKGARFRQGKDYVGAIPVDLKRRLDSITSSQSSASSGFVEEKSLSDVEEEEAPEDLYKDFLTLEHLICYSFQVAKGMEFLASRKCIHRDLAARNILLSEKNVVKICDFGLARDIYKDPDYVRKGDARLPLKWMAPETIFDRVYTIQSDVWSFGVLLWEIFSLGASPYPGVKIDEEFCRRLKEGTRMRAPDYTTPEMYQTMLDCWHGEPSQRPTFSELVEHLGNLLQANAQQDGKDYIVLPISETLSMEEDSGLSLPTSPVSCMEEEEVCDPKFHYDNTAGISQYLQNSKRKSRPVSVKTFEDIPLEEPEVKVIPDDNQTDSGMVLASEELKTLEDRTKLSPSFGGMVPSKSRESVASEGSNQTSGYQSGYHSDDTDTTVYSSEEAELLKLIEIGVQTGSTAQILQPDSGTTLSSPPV

Nc1nc2c(c(Nc3ccc(Cl)cc3)n1)-c1ccccc1C2
GI50 (SF-268): 86.2 nM
GI50 (KM12): 330 nM
IC50 [1]: > 200000 nM
GI50 (CCRF-CEM): 31.2 nM
GI50 (DU-145): 212 nM
GI50 (cells): 2220 nM
GI50 (NCI-H23): 565 nM
GI50 (786-0): 514 nM
GI50 (OVCAR-3): 216 nM
GI50 (CAKI-1): 1080 nM
GI50 (EKVX): 2710 nM
IC50 (A-431): 9700 nM
Activity (B16-F10 [2]): inactive
GI50 (UACC-257): 84.5 nM
GI50 (UACC-62): 641 nM
GI50 (T47D): 2900 nM
GI50 (OVCAR-4): 2090 nM
Activity (B16-F10 [3]): Active
IC50 [4]: > 16000 nM
GI50 (SK-MEL-2): 558 nM
GI50 (HCT-116): 38.1 nM
IC50 [5]: > 14000 nM
IC50 [6]: > 200000 nM
GI50 (RXF 393): 2910 nM
GI50 (HL-60(TB)): 150 nM
growth inhibition (GI) (B16-F10 [7]): Active
GI50 (NCI-H322M): 1350 nM
GI50 (HCT-15): 434 nM
GI50 (BT-549): 2830 nM
GI50 (SR): 484 nM
GI50 (SF-295): 547 nM
IC50 [8]: > 14000 nM
GI50 (MOLT-4): 66.1 nM
GI50 (ACHN): 3420 nM
GI50 (LOX IMVI): 308 nM
GI50 (K562): 366 nM
GI50 (PC-3): 715 nM
GI50 (SN12C): 189 nM
GI50 (NCI-H522): 622 nM
Activity (Mus musculus): Non-toxic
